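In this assay, cells in 96-well plates receive the compound at five concentrations for 48 hours. Endpoints are linearly interpolated between the surrounding concentrations. TGI: total growth inhibition.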
Columns and labels:
Assay in all cases: growth of human tumour cells (NCI), 48 h
[1] = test system: A549 NSCLC
[2] = test system: HCC-2998 colon
[3] = test system: HOP-62 NSCLC
[4] = test system: IGROV1 ovarian
[5] = test system: LXFL 529 NSCLC
[6] = test system: M19-MEL melanoma
[7] = test system: NCI-H522 lung
[8] = test system: OVCAR-5 ovarian
[9] = test system: OVCAR-8 ovarian
[10] = test system: SK-MEL-5 melanoma
[11] = test system: UACC-257 melanoma

| Compound | TGI [1] | TGI [2] | TGI [3] | TGI [4] | TGI [5] | TGI [6] | TGI [7] | TGI [8] | TGI [9] | TGI [10] | TGI [11] |
| --- | --- | --- | --- | --- | --- | --- | --- | --- | --- | --- | --- |
| N#Cc1cc([N+](=O)[O-])ccc1NC(=O)C(=O)Nn1c(=S)[nH]c2ccccc2c1=O | > 100 µM | > 100 µM | > 100 µM | > 100 µM | > 100 µM | > 100 µM | > 100 µM | > 100 µM | > 100 µM | > 100 µM | > 100 µM |
| Cn1cnc([N+](=O)[O-])c1Sc1nnc(-c2ccc(Cl)cc2)n1C | > 100 µM | 32.3 µM | > 100 µM | 32.7 µM | 22.3 µM | 27.5 µM | 15.6 µM | 34.8 µM | 46 µM |  | 25.5 µM |
| O=C1C(Nc2ccc(S(=O)(=O)Nc3cnc4ccccc4n3)cc2)=CC(=Nc2ccc(S(=O)(=O)Nc3cnc4ccccc4n3)cc2)c2ccccc21 | 38 µM | 31.3 µM | 34.8 µM | 37.4 µM | 29.5 µM | 30.8 µM | 30.5 µM | 30.8 µM | 39.5 µM | 31.5 µM | > 65.2 µM |
| Cc1nc2cc3[nH]c4ccccc4c(=O)c3cc2s1 | > 100 µM | > 100 µM | > 100 µM | > 100 µM | > 100 µM | > 100 µM | > 100 µM | > 100 µM | > 100 µM | > 100 µM | > 100 µM |
| C#CCN1C(=O)CN2C(Cl)(Cl)C2(c2ccccc2)c2cc(Cl)ccc21 (stereo unspecified) |  | > 100 µM | > 100 µM |  | > 100 µM | > 100 µM | 75.2 µM | > 100 µM | > 100 µM | > 100 µM | > 100 µM |
| O=C1C2Cc3ccccc3CN2C(=O)N1CN1CCCCC1 (stereo unspecified) | > 100 µM | > 100 µM | > 100 µM | > 100 µM | > 100 µM | > 100 µM | > 100 µM | > 100 µM | > 100 µM | > 100 µM |  |
| CCOC1=C2N=C(C(CC)c3ccc(F)cc3)N=C2C(=O)c2ccccc21 (stereo unspecified) | > 85.8 µM | > 100 µM | > 100 µM | > 100 µM | > 90.3 µM | > 59.4 µM | 76.7 µM | > 100 µM | > 100 µM | 26.9 µM | 49 µM |
| Nc1nc2c(nnn2C2C=C(CO)C(O)C2O)c(=O)[nH]1 (stereo unspecified) | > 100 µM | > 100 µM | > 100 µM | > 100 µM | > 100 µM | > 100 µM | > 100 µM | > 100 µM | > 100 µM | > 100 µM | > 100 µM |
| O=C(C#Cc1ccccc1)Nc1ccccc1CC(c1c[nH]c2ccccc12)c1c[nH]c2ccccc12 | > 100 µM | 50.6 µM | > 100 µM | 98.8 µM | 28.4 µM | 47.8 µM | 26.5 µM |  | 39.7 µM | 31.8 µM | > 100 µM |
| CC(C)C(N=C1CC2CCC1(C(=O)Nc1ccccc1O)C2(C)C)c1ccccc1 (stereo unspecified) | > 10 µM | > 10 µM | > 10 µM | > 10 µM | > 10 µM | > 10 µM | > 10 µM | > 10 µM | > 10 µM | > 10 µM | > 10 µM |
| O=C(Cn1cc(I)c(C(=O)NCC(O)CO)n1)NCC(O)CO (stereo unspecified) | > 100 µM | > 100 µM | > 100 µM | > 100 µM | > 100 µM | > 100 µM | > 100 µM |  | > 100 µM |  | > 100 µM |
| COc1ccc(/C=N/NC(=O)NCCNCCO)cc1 | > 100 µM |  | > 100 µM | > 100 µM | > 100 µM | > 100 µM | > 100 µM | > 100 µM | > 100 µM | > 100 µM | > 100 µM |
| CC(=O)Nc1ccc(S(=O)(=O)Nc2cnc3ccccc3n2)cc1 | > 100 µM | > 100 µM | > 100 µM | > 100 µM | > 100 µM | > 100 µM | > 100 µM | > 100 µM | > 100 µM | > 100 µM | > 100 µM |
| C#CCN(Cc1ccc2nc(-c3ccccc3)c(Cl)nc2c1)c1ccc(Cl)c(Cl)c1 | > 100 µM | 96.8 µM | > 100 µM | > 100 µM | > 100 µM | > 100 µM | > 100 µM | > 100 µM | > 100 µM | > 100 µM | > 100 µM |
| Nc1ccc2ncc(NCc3ccc(F)cc3)nc2c1 | > 100 µM | > 100 µM | > 100 µM |  | > 100 µM | > 100 µM | > 100 µM | > 100 µM | > 100 µM | > 100 µM | > 100 µM |
